Data reported in patent US20240226107A1, “UBIQUITIN-SPECIFIC PROTEASE 1 (USP1) INHIBITOR” (SIMCERE ZAIMING PHARMACEUTICAL CO., LTD., priority 2021, published 2024).
In brackets after ≈: the same amount, converted by molar mass.

What was measured:
[1] = Solubility (PBS pH 7.4) of compounds from DMSO solution; assay type: physicochemical; conditions: aqueous buffer, kinetic from dmso stock, 10 mM DMSO solution into PBS pH 7.4, 25° C., read-out: Calculated solubility
Protocol: The solubility (PBS pH 7.4) of a compound to be tested was determined by LC/MS/MS. 6 μL of 10 mM DMSO solution of the compound to be tested was mixed with 194 μL of DMSO to prepare 300 μM compound solution. In 490 μL of water and acetonitrile (1:1) containing an internal standard, 5 μL of the solution and 5 μL of PBS pH 7.4 solution were mixed to prepare 3 μM standard concentration solution of the sample to be tested. The dilution factor of the standard solution can be adjusted according to the strength of response signals in LC/MS.
To 485 μL of PBS pH 7.4 solution, 15 μL of 10 mM DMSO solution of the compound to be tested was added. […] After shaking, the stir bar was removed, and the sample was transferred to a filter plate and filtered using a vacuum manifold. In 490 μL of water and acetonitrile (1:1) containing an internal standard, 5 μL of filtrate and 5 μL of PBS pH 7.4 solution were mixed to prepare a solution to be tested. The dilution factor can be adjusted according to the solubility value and the strength of response signals in LC/MS.
The resulting samples were determined by LC/MS/MS. The sample solubility was calculated from peak areas of the solution of the compound to be tested and the standard concentration solution, according to the following equation:
[formula] • [Sample] is the solubility of the sample to be tested; • Area ratiosample is the ratio of the peak area of sample in the sample to be tested to the peak area of the internal standard; • INJ VOL STD is the injection volume of the standard concentration solution; • DFsample is the dilution factor of the solution of the sample to be tested; • [STD] is the concentration of the standard concentration solution; • INJ VOLsample is the injection volume of the solution of the sample to be tested; and • Area ratio STD is the ratio of the peak area of sample in the standard concentration solution to the peak area of the internal standard.

[2] = system: MDA-MB-436 cells;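 note: MDA-MB-436 proliferation over 7 days with compound, viability read as ATP luminescence (CellTiter-Glo), inhibition relative to DMSO-only wells, day 0 signal as background, GI50 from four-parameter fit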
Protocol: Assay based on CellTiter-Glo luminescent cell viability assay system.
The assay kit (CellTiter-Glo® Luminescent Cell Viability Assay) was purchased from Promega, with Cat. No. of G7573, and was stored at −30° C. after subpackage. The kit is a homogeneous assay method for assaying the number of viable cells in a culture based on quantitative determination of ATP. The kit produces a luminescence signal proportional to the amount of ATP present, and the amount of ATP is directly proportional to the number of cells in the culture.
The cultured cells were trypsinized, collected and centrifuged, then resuspended at an adjusted concentration in a culture solution (DMEM+10% FBS), and cultured overnight on a 384-well plate (400 cells/20 μl/well) in a cell incubator with 5% CO2 at 37° C. An ECHO instrument was used to added the compound and pure DMSO onto each well of the 384-well plate. The total volume of the compound and DMSO is 100 nL, and the instrument obtains gradient diluted sample concentrations through different ratios. To each well, 30 μL of culture solution was added, and after mixing by centrifugal oscillation and re-centrifugation, the cells were cultured in a cell incubator for 7 days (one column of cells was subjected to CTG assay on the day of dosing). After day 7, 25 μL of CTG assay solution was added to each well, and after mixing by centrifugal oscillation and re-centrifugation, the cells were placed at room temperature away from light for 10 min. In terms of chemiluminescence signals, an Envision plate reader (PerkinElmer, emission wavelength: 400-700 nm) was used to measure a signal in each well. The chemiluminescence value [RLU]cpd on day 7 was obtained for the treatment group, the chemiluminescence value [RLU]cell on day 7 was obtained for the non-treatment group (given DMSO only), and the chemiluminescence value [RLU]background on day 0 was obtained for the parallel non-treatment group (given DMSO only) by CTG assay on day 0. […] In the following equation, x represents the concentration of the compound in a logarithmic form; and F(x) represents an effect value (inhibition rate of proliferation at the concentration): F(x)=(A+((B−A)/(1+((C/x)^D)))). A, B, C, and D are four parameters.

[3] = molecular target: USP1 (Recombinant Human His6-USP1/His6-UAF1 Complex Protein) (Homo sapiens (Human), UniProt O94782); assay: In vitro activity assay for USP1 (Ub-CHOP2-Reporter deubiquitination assay); assay type: biochemical; conditions: 0.5 h incubation at room temperature, read-out: In vitro inhibitory activity of USP1 IC50
USP1 (Recombinant Human His6-USP1/His6-UAF1 Complex Protein), sequence (O94782 whole entry): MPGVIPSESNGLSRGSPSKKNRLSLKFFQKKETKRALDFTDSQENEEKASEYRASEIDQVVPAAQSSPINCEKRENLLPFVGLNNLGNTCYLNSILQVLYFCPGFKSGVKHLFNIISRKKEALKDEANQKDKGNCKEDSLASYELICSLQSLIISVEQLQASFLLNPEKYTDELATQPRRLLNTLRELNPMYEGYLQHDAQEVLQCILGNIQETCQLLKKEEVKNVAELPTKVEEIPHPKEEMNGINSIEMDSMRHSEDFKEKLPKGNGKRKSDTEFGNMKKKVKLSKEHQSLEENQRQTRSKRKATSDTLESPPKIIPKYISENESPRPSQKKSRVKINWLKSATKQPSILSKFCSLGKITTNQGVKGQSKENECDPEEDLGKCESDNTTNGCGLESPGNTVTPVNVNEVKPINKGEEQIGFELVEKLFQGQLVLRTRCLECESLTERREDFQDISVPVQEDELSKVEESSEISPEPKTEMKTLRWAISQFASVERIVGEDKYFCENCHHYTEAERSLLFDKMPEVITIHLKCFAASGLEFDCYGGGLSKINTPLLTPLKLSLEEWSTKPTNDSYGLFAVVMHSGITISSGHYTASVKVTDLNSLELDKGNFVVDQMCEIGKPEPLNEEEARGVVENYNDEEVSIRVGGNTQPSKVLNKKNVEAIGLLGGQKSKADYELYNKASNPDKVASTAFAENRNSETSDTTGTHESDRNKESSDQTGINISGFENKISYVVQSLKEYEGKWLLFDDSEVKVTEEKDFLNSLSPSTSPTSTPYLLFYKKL
USP1 (Recombinant Human His6-USP1/His6-UAF1 Complex Protein), sequence (Q8TAF3 whole entry partner): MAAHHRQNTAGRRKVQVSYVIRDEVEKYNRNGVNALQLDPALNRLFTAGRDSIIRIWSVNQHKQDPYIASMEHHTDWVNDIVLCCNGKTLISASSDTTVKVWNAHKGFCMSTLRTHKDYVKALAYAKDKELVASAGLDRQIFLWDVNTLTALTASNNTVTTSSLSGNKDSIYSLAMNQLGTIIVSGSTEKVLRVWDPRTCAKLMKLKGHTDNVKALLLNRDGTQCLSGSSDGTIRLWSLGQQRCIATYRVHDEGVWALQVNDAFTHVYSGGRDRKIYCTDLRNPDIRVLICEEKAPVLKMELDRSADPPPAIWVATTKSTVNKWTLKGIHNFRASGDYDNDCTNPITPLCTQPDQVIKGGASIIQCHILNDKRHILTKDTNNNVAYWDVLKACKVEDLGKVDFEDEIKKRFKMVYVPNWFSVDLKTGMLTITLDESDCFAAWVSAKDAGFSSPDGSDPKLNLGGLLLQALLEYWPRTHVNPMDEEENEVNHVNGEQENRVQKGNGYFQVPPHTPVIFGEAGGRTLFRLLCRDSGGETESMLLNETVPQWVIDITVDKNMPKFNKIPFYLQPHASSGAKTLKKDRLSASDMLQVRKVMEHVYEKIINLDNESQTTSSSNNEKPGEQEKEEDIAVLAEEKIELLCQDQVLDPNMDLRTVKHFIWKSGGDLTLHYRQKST
Protocol: The assay kit (Ub-CHOP2-Reporter Deubiquitination Assay Kit) was purchased from Lifesensors, with Cat. No. of PR1101. The assay kit was subpackaged and stored at −80° C.
Each compound to be tested was dissolved with DMSO to 10 mM. The compound and pure DMSO (with a total volume of 50 nL) were loaded to each well of the 384-well plate by using an ECHO instrument to obtain gradient-diluted sample concentrations at different ratios. The enzyme was diluted with a freshly prepared reaction solution (20 mM Tris-HCl (pH 8.0), 2 mM CaCl2, 2 mM β-mercaptoethanol, 0.05% CHAPS, and ddH2O). To each well, 5 μL of diluted enzyme reaction solution was added, then the plate was centrifuged and oscillated to mix the enzyme and the compound, and the mixture was centrifuged again and placed on ice. The kit reporter system and the substrate were diluted with the reaction solution, then 5 μL of diluted liquid was added to each well, and mixed by centrifugation. The mixture was incubated at room temperature for 0.5 h. […] The inhibitory activity (IC50 values) of the compound on enzyme activity was calculated by using a four-parameter Logistic Model. […] A, B, C, and D are four parameters.

Row | Structure (SMILES) | solubility at 2 h [1] [µM] | GI50 [2] [µM] | IC50 [3] [µM]
1 | COc1ncnc(C2CC2)c1-c1ncc2c(n1)N(Cc1ccc(-c3nc(C(F)(F)F)cn3C)cn1)CCO2 [Compound 16] | 284 (≈ 149 µg/mL) | 1.08 | 
2 | COc1ncnc(C2CC2)c1-c1ncc2c(n1)N(Cc1ccc(-c3nc(C(F)(F)F)cn3C)cc1)CC(=O)N2C1CC1 [Compound 24, 2-(4-cyclopropyl-6-methoxypyrimidin-5-yl)-5-cyclopropyl-8-(4-(1-methyl-4-(trifluoromethyl)-1H-imidazol-2-yl)benzyl)-7,8-dihydropteridin-6(5H)-one] | 228 (≈ 131 µg/mL) | 0.0862 | 0.0236
3 | COc1ncnc(C2CC2)c1-c1ncc2c(n1)N(CC1CCN(c3nc(C(F)(F)F)cn3C)CC1)CCO2 [Compound 30, 2-(4-cyclopropyl-6-methoxypyrimidin-5-yl)-8-((1-(1-methyl-4-(trifluoromethyl)-1H-imidazol-2-yl)piperidin-4-yl)methyl)-7,8-dihydro-6H-pyrimido[5,4-b][1,4]oxazine] | 225 (≈ 119 µg/mL) | 0.161 | 0.0447
4 | CCN1C(=O)CN(Cc2ccc3c(c2)CCCn2cc(C(F)(F)F)nc2-3)c2nc(-c3c(OC)ncnc3C3CC3)ncc21 [Compound 46, 2-(4-cyclopropyl-6-methoxypyrimidin-5-yl)-5-ethyl-8-((2-(trifluoromethyl)-6,7-dihydro-5H-benzo[c]imidazo[1,2-a]azepin-9-yl)methyl)-7,8-dihydropteridin-6(5H)-one] | 50 (≈ 29.5 µg/mL) |  | 
5 | COc1ncnc(C2CC2)c1-c1ncc2c(n1)N(Cc1ccc(-c3nc(C(F)(F)F)cn3C)c(F)c1)C(C)C(=O)N2C (centres unmarked) [Compound 70, 2-(4-cyclopropyl-6-methoxypyrimidin-5-yl)-8-(3-fluoro-4-(1-methyl-4-(trifluoromethyl)-1H-imidazol-2-yl)benzyl)-5,7-dimethyl-7,8-dihydropteridin-6(5H)-one] | 98 (≈ 57.1 µg/mL) | 0.0931 | 0.0379
6 | COc1ncnc(C2CC2)c1-c1ncc2c(n1)N(Cc1ccc(-c3nc(C(F)(F)F)cn3C)c(F)c1)CC(=O)N2C1CC1 [Compound 71, 2-(4-cyclopropyl-6-methoxypyrimidin-5-yl)-8-(3-fluoro-4-(1-methyl-4-(trifluoromethyl)-1H-imidazol-2-yl)benzyl)-5-cyclopropyl-7,8-dihydropteridin-6(5H)-one] |  | 0.0741 | 0.0716
7 | COc1ncnc(C2CC2)c1-c1ncc2c(n1)N(Cc1ccc(-c3nc(C(F)(F)F)cn3C)cc1)CC(=O)N2C(C)C [Compound 78, 2-(4-cyclopropyl-6-methoxypyrimidin-5-yl)-8-(4-(1-methyl-4-(trifluoromethyl)-1H-imidazol-2-yl)benzyl)-5-isopropyl-7,8-dihydropteridin-6(5H)-one] |  | 0.0531 | 0.096
8 | COc1ncnc(C2CC2)c1-c1ncc2c(n1)N(Cc1ccc3c(c1)C(C)CCn1cc(C(F)(F)F)nc1-3)CC(=O)N2C (centres unmarked) [Compound 79, 2-(4-cyclopropyl-6-methoxypyrimidin-5-yl)-5-methyl-8-((7-methyl-2-(trifluoromethyl)-6,7-dihydro-5H-benzo[c]imidazo[1,2-a]azepin-9-yl)methyl)-7,8-dihydropteridin-6(5H)-one] |  | 0.0802 | 0.0952
9 | COc1ncnc(C2CC2)c1-c1ncc2c(n1)N(Cc1ccc(-c3nc(C(F)(F)F)cn3C)cc1)C(=O)OC2 [Compound 80, 7-(4-cyclopropyl-6-methoxypyrimidin-5-yl)-1-(4-(1-methyl-4-(trifluoromethyl)-1H-imidazol-2-yl)benzyl)-1,4-dihydro-2H-pyrimido[4,5-d][1,3]oxazin-2-one] | 72 (≈ 38.7 µg/mL) |  | 0.0117
10 | COc1ncnc(C2CC2)c1-c1ncc2c(n1)N(Cc1ccc(-c3nc(C(F)(F)F)cn3C)cc1)C(=O)OC2C (centres unmarked) [Compound 81, 7-(4-cyclopropyl-6-methoxypyrimidin-5-yl)-4-methyl-1-(4-(1-methyl-4-(trifluoromethyl)-1H-imidazol-2-yl)benzyl)-1,4-dihydro-2H-pyrimido[4,5-d][1,3]oxazin-2-one] |  | 0.0693 | 0.0272

More lines, now with the values ahead:

Row | solubility at 2 h [1] [µM] | GI50 [2] [µM] | IC50 [3] [µM] | Structure (SMILES)
11 | 122 (≈ 68.9 µg/mL) | 0.0226 | 0.0269 | CCn1cc(C(F)(F)F)nc1-c1ccc(CN2CC(=O)N(C)c3cnc(-c4c(OC)ncnc4C4CC4)nc32)cc1 [Compound 40, 2-(4-cyclopropyl-6-methoxypyrimidin-5-yl)-5-methyl-8-(4-(1-ethyl-4-(trifluoromethyl)-1H-imidazol-2-yl)benzyl)-7,8-dihydropteridin-6(5H)-one]
12 | 88 (≈ 50.9 µg/mL) | 0.0284 | 0.019 | COc1ncnc(C2CC2)c1-c1ncc2c(n1)N(Cc1ccc(-c3nc(C(F)(F)F)cn3C(C)C)cc1)CC(=O)N2C [Compound 41, 2-(4-cyclopropyl-6-methoxypyrimidin-5-yl)-5-methyl-8-(4-(1-isopropyl-4-(trifluoromethyl)-1H-imidazol-2-yl)benzyl)-7,8-dihydropteridin-6(5H)-one]
13 | 115 (≈ 67.5 µg/mL) | 0.0296 | 0.0272 | COc1ncnc(C2CC2)c1-c1ncc2c(n1)N(Cc1cc(F)c(-c3nc(C(F)(F)F)cn3C)c(F)c1)CC(=O)N2C [Compound 66, 2-(4-cyclopropyl-6-methoxypyrimidin-5-yl)-5-methyl-8-(3,5-difluoro-4-(1-methyl-4-(trifluoromethyl)-1H-imidazol-2-yl)benzyl)-7,8-dihydropteridin-6(5H)-one]
14 |  | 0.027 | 0.0121 | CCn1cc(C(F)(F)F)nc1-c1ccc(CN2CC(=O)N(C)c3cnc(-c4c(OC)ncnc4C4CC4)nc32)cc1F [Compound 68, 2-(4-cyclopropyl-6-methoxypyrimidin-5-yl)-5-methyl-8-(3-fluoro-4-(1-ethyl-4-(trifluoromethyl)-1H-imidazol-2-yl)benzyl)-7,8-dihydropteridin-6(5H)-one]
15 |  | 0.048 | 0.0452 | CCn1cc(C(F)(F)F)nc1-c1ccc(CN2CC(=O)N(C3CC3)c3cnc(-c4c(OC)ncnc4C4CC4)nc32)cc1F [Compound 73, 2-(4-cyclopropyl-6-methoxypyrimidin-5-yl)-8-(3-fluoro-4-(1-ethyl-4-(trifluoromethyl)-1H-imidazol-2-yl)benzyl)-5-cyclopropyl-7,8-dihydropteridin-6(5H)-one]
16 |  | 0.0487 | 0.0184 | COc1ncnc(C2CC2)c1-c1ncc2c(n1)N(Cc1ccc(-c3nc(C(F)(F)F)cn3C3CC3)c(F)c1)CC(=O)N2C1CC1 [Compound 77, 2-(4-cyclopropyl-6-methoxypyrimidin-5-yl)-8-(3-fluoro-4-(1-cyclopropyl-4-(trifluoromethyl)-1H-imidazol-2-yl)benzyl)-5-cyclopropyl-7,8-dihydropteridin-6(5H)-one]
17 |  | 0.0358 | 0.0593 | COc1ncnc(C2CC2)c1-c1ncc2c(n1)N(Cc1ccc3c(c1)CCCn1cc(C(F)(F)F)nc1-3)CC(=S)N2C [Compound 82, 2-(4-cyclopropyl-6-methoxypyrimidin-5-yl)-5-methyl-8-((2-(trifluoromethyl)-6,7-dihydro-5H-benzo[c]imidazo[1,2-a]azepin-9-yl)methyl)-7,8-dihydropteridine-6(5H)-thione]
18 |  | 0.023 | 0.0485 | COc1ncnc(C2CC2)c1-c1ncc2c(n1)N(Cc1ccc(-c3nc(C(F)(F)F)cn3C)c(F)c1)CC(=S)N2C [Compound 83, 2-(4-cyclopropyl-6-methoxypyrimidin-5-yl)-8-(3-fluoro-4-(1-methyl-4-(trifluoromethyl)-1H-imidazol-2-yl)benzyl)-5-methyl-7,8-dihydropteridine-6(5H)-thione]
